# Literature values, collected in patent publication US6432971B1, “Method of prevention of prostatic carcinoma with 17β-N-monosubstituted-carbamoyl-4-aza-5α-androst-1-en-3-ones” (Merck & Co., Inc., priority 1991, dated 2002).
# Experiments:
# [1] = tested on: female hamster flank organ; settings: for effect on flank organ response elicited by 5α-dihydrotestosterone: concomitant administration with topical 5α-dihydrotestosterone; for effect on flank organ response elicited by testosterone: concomitant administration with topical testosterone
# [2] = tested on: testosterone-5α-reductase; settings: in vitro; Voigt and Hsia, Endocrinology 92, 1216 (1973)
Structure (SMILES),effect on flank organ response elicited by 5α-dihydrotestosterone [1],effect on flank organ response elicited by testosterone [1],inhibition of testosterone-5α-reductase [2]
COC(=O)[C@H]1CC[C@H]2[C@@H]3CCC4=CC(=O)CC[C@]4(C)[C@H]3CC[C@]12C [methyl 4-androsten-3-one-17β-carboxylate],did not inhibit the response elicited by 5α-dihydrotestosterone,inhibited the response elicited by testosterone,active inhibitors of testosterone-5α-reductase in vitro
C[C@]12CC[C@H]3[C@@H](CCC4=CC(=O)CC[C@@]43C)[C@@H]1CC[C@@H]2C(=O)O [4-androsten-3-one-17β-carboxylic acid],did not inhibit the response elicited by 5α-dihydrotestosterone,inhibited the response elicited by testosterone,active inhibitors of testosterone-5α-reductase in vitro
